# Laboratory results as given in patent US4335244A, “Monolactate salts of 4'-(9-acridinylamino)methanesulfon-m-anisidide” (Bristol-Myers Company, priority 1980, dated 1982).
# “And” between values parts separate entries of the source, which are not always exact repeats. Equal values may be shown once. Read-outs that look alike come from different tables or passages of the source.
# Tests used:
# physchem [1] = settings: water
# [2] = for Time for which dilute solution remains clear (in words): dilute solutions (e.g. 3-5 mg/ml) of m-AMSA, no precipitation of salt; for Stability (in words): solid form and/or upon reconstitution with water; for Time for which reconstituted solution remained clear: room temperature
# Protocol: (§1) (f) Stability: 15 mg salt was reconstituted with 10 ml sterile water.
# physchem [3] = settings: sterile water
# Protocol: as §1
# [4] = Reconstitution with (sterile) water; assay type: physicochemical
# Protocol: The crystalline m-AMSA monolactate hemiacetonate (10 mg) prepared according to Example 1 was dissolved in 0.5 ml sterile water in an 8.2 ml flint vial. The vial was lyophilized on a laboratory lyophilizer for 16 hours. Sterile water (0.5 ml) was added to the vial. A solution was obtained after two minutes of shaking.
# 2. For reconstitution, add a sufficient amount of sterile water for
# injection to give a 5 mg/ml mAMSA activity solution. The reconstituted
# [5] = pH of aqueous solution before lyophilization; assay type: physicochemical; settings: 180 mg in 24 ml sterile water
# Protocol: m-AMSA DL-lactate acetone solvate (180 mg; prepared in Example 6) was dissolved in 24 ml sterile water with stirring. The resulting clear (pH 4.2) solution was passed through a 1 inch 0.45 micron Millipore filter. Two ml of the filtrate was placed in an 8.2 cc flint vial and the solution was lyophilized for 24 hours.
# [6] = cited from earlier work
# animal tumor systems = settings: Cain, et al., Europ. J. Cancer 10:539-549 (1974); cited from earlier work
smiles,measurement,setting,value
"COc1cc(NS(C)(=O)=O)ccc1Nc1c2ccccc2nc2ccccc12 [Example 1, L(+)-Monolactate Hemiacetonate of m-AMSA]",solubility,physchem [1],5 mg/mL
same,Time for which reconstituted solution was stable,[2]; 15 mg salt reconstituted with 10 ml sterile water,at least 24 hours
same,Time for which dilute solution remains clear (in words),[2],at least several hours
same,Stability (in words),[2],excellent stability both in solid form and upon reconstitution with water
same,degraded at 336 h,physchem [3],< 6%
"COc1cc(NS(C)(=O)=O)ccc1Nc1c2ccccc2nc2ccccc12 [Example 2, Lyophilized L(+)-Monolactate Hemiacetonate of m-AMSA]",Shaking time to obtain a solution on reconstitution of lyophilized product,"[4]; 10 mg salt lyophilized, 0.5 ml sterile water",two
"COc1cc(NS(C)(=O)=O)ccc1Nc1c2ccccc2nc2ccccc12 [Example 4, m-AMSA Mono DL-Lactate Acetone Solvate]",solubility,physchem [1]; room temperature,25 mg/mL
same,Time for which aqueous solution remained clear,"[2]; 5 mg/ml, room temperature (17° C.)",at least 16 hours
same,Time for which aqueous solution remained clear,"[2]; 7.5 mg/ml, 17° C., listed as Example 5",at least 16 hours
same,Time for which reconstituted solution remained clear,[2]; 7.5 mg/ml,24 h
same,Time for which reconstituted solution remained clear,[2]; 10 mg/ml,24 h
same,Time for which reconstituted solution remained clear,[2]; 15 mg/ml,6 h
same,Time for which reconstituted solution remains clear,"[2]; 5-7.5 mg/ml, 17° C.",at least 6 hours
same,Time for which dilute solution remains clear (in words),[2],at least several hours
same,Stability (in words),[2],excellent stability both in solid form and upon reconstitution with water
same,pH of solution,[5],4.2
same,Concentration of solution obtained on reconstitution with water,[4],5000 to 7500 µg/mL
same,Concentration of reconstituted aqueous solution readily obtained,[4]; 3 minutes shaking at 75° F.,5000 µg/mL and 7500 µg/mL and 10000 µg/mL
same,Concentration of solution obtained on reconstitution with water,[4]; listed as Example 5,7500 µg/mL
COc1cc(NS(C)(=O)=O)ccc1Nc1c2ccccc2nc2ccccc12 [Example 7],Time for which aqueous solution remained clear,"[2]; 7.5 mg/ml, 17° C.",at least 6 hours
same,Time for which shaken solution was clear,"[2]; 7.5 mg/ml, low speed horizontal shaker",up to 5 hours
same,Concentration of solution obtained on reconstitution with water,[4],7500 µg/mL
"COc1cc(NS(C)(=O)=O)ccc1Nc1c2ccccc2nc2ccccc12 [Example 10, m-AMSA D(-)-Monolactate Hemiacetonate]",Time for which dilute solution remains clear (in words),[2],at least several hours
same,Stability (in words),[2],excellent stability both in solid form and upon reconstitution with water
COc1cc(NS(C)(=O)=O)ccc1Nc1c2ccccc2nc2ccccc12 [Example 11],Concentration of solution obtainable on reconstitution with water (m-AMSA activity),"[4]; lyophilized solid, at least 3-5 mg/ml m-AMSA activity, procedure of Example 7 'if repeated'",3000 to 5000 µg/mL
"COc1cc(NS(C)(=O)=O)ccc1Nc1c2ccccc2nc2ccccc12 [m-AMSA, 4'-(9-acridinylamino)methanesulfon-m-anisidide]",Clinical evaluation result,[6],very promising initial results
same,Incompatibility of solutions with ions,"[2]; chloride, sulfate and phosphate ions, insoluble salts form","incompatible with chloride, sulfate and phosphate"
same,Antitumor activity in animal tumor systems,animal tumor systems,significant antitumor activity in animal tumor systems
